Assays:
Test in all cases: relative viability (nuclei count vs DMSO), 5 days (fraction); higher = more cells survive
FH535 + Linsitinib = compound: CC1=C(C=CC(=C1)[N+](=O)[O-])NS(=O)(=O)C2=C(C=CC(=C2)Cl)Cl [FH535] + C[C@]1(O)C[C@@H](c2nc(-c3ccc4ccc(-c5ccccc5)nc4c3)c3c(N)nccn32)C1 [Linsitinib] (partner 1 µM)
How it was run: (§1)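 Cells from lung cancer lines were seeded into 1536-well plates and, one day later, dosed by pin tool. Treatments were either a single drug or a fixed dose of an anchor drug with five library-drug doses (not always all listed) in √10 steps. After 5 days, nuclei were stained in a one-step fixation (final 0.05% Triton X-100, 1% formaldehyde, 1 ug/ml Hoechst) and counted on 4× images, and relative viability is the treated-to-vehicle nuclei ratio, as the median of duplicate plates.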

FH535 + Bortezomib = compound: CC1=C(C=CC(=C1)[N+](=O)[O-])NS(=O)(=O)C2=C(C=CC(=C2)Cl)Cl [FH535] + CC(C)C[C@H](NC(=O)[C@H](Cc1ccccc1)NC(=O)c1cnccn1)B(O)O [Bortezomib] (partner 0.002 µM)
How it was run: as §1

FH535 + Tozasertib = compound: CC1=C(C=CC(=C1)[N+](=O)[O-])NS(=O)(=O)C2=C(C=CC(=C2)Cl)Cl [FH535] + Cc1cc(Nc2cc(N3CCN(C)CC3)nc(Sc3ccc(NC(=O)C4CC4)cc3)n2)n[nH]1 [Tozasertib] (partner 0.1 µM)
How it was run: as §1

FH535 + Phenformin = compound: CC1=C(C=CC(=C1)[N+](=O)[O-])NS(=O)(=O)C2=C(C=CC(=C2)Cl)Cl [FH535] + N=C(N)NC(=N)NCCc1ccccc1 [Phenformin] (partner 250 µM)
How it was run: as §1

FH535 + Pemetrexed = compound: CC1=C(C=CC(=C1)[N+](=O)[O-])NS(=O)(=O)C2=C(C=CC(=C2)Cl)Cl [FH535] + Nc1nc2[nH]cc(CCc3ccc(C(=O)N[C@@H](CCC(=O)O)C(=O)O)cc3)c2c(=O)[nH]1 [Pemetrexed] (partner 0.2 µM)
How it was run: as §1

| Cell Line | relative viability (FH535 + Linsitinib; first compound 0.04 µM) | relative viability (FH535 + Linsitinib; first compound 0.1265 µM) | relative viability (FH535 + Linsitinib; first compound 0.4 µM) | relative viability (FH535 + Linsitinib; first compound 1.265 µM) | relative viability (FH535 + Bortezomib; first compound 0.04 µM) | relative viability (FH535 + Bortezomib; first compound 0.1265 µM) | relative viability (FH535 + Bortezomib; first compound 0.4 µM) | relative viability (FH535 + Bortezomib; first compound 1.265 µM) | relative viability (FH535 + Tozasertib; first compound 0.04 µM) | relative viability (FH535 + Tozasertib; first compound 0.1265 µM) | relative viability (FH535 + Tozasertib; first compound 0.4 µM) | relative viability (FH535 + Tozasertib; first compound 1.265 µM) | relative viability (FH535 + Phenformin; first compound 0.04 µM) | relative viability (FH535 + Phenformin; first compound 0.1265 µM) | relative viability (FH535 + Phenformin; first compound 0.4 µM) | relative viability (FH535 + Phenformin; first compound 1.265 µM) | relative viability (FH535 + Pemetrexed; first compound 0.04 µM) | relative viability (FH535 + Pemetrexed; first compound 0.1265 µM) | relative viability (FH535 + Pemetrexed; first compound 0.4 µM) | relative viability (FH535 + Pemetrexed; first compound 1.265 µM) |
| --- | --- | --- | --- | --- | --- | --- | --- | --- | --- | --- | --- | --- | --- | --- | --- | --- | --- | --- | --- | --- |
| IA-LM | 0.624 | 0.525 | 0.687 | 0.45 | 0.89 | 0.799 | 0.747 | 0.47 | – | – | – | – | – | – | – | – | – | – | – | – |
| ChaGo-K-1 | – | – | – | – | 0.915 | 1.24 | 0.95 | 0.589 | 0.225 | 0.236 | 0.216 | 0.202 | 0.462 | 0.554 | 0.428 | 0.384 | 0.259 | 0.237 | 0.273 | 0.255 |
| NCI-H1944 | – | 1.31 | 1.22 | 1.05 | – | – | – | – | 0.237 | 0.265 | 0.234 | 0.236 | 0.17 | 0.205 | 0.161 | 0.109 | 0.53 | 0.621 | 0.505 | 0.515 |
| LCLC-97TM1 | – | 0.202 | 0.204 | 0.185 | 0.705 | 0.545 | 0.561 | 0.273 | 0.229 | 0.284 | 0.282 | 0.161 | 0.409 | 0.37 | 0.334 | 0.313 | 0.155 | 0.173 | 0.156 | 0.135 |
| NCI-H358 | 0.696 | 0.822 | 0.791 | 0.552 | – | – | – | – | 0.0899 | 0.0929 | 0.104 | 0.0851 | 0.256 | 0.327 | 0.265 | 0.153 | 0.178 | 0.16 | 0.169 | 0.16 |
| NCI-H1993 | 0.703 | 0.734 | 0.673 | 0.745 | 1.01 | 0.927 | 0.895 | 0.811 | 0.53 | 0.596 | 0.551 | 0.472 | 0.415 | 0.495 | 0.533 | 0.524 | 0.539 | 0.611 | 0.523 | 0.463 |
| NCI-H520 | 0.982 | 0.959 | 0.915 | 0.873 | 0.304 | 0.239 | 0.522 | 0.601 | 0.375 | 0.44 | 0.393 | 0.401 | 0.36 | 0.611 | 0.55 | 0.429 | 0.737 | 0.818 | 0.585 | 0.659 |
| NCI-H1975 | 0.95 | 0.986 | 0.925 | 0.784 | 0.312 | 0.381 | 0.374 | 0.338 | 0.654 | 0.726 | 0.602 | 0.635 | 0.384 | 0.402 | 0.35 | 0.256 | 0.286 | 0.309 | 0.277 | 0.275 |
| SK-LU-1 | 1.06 | 1.17 | 1.16 | 0.678 | 0.85 | 1.19 | 1.04 | 0.926 | 0.319 | 0.38 | 0.316 | 0.32 | 0.563 | 0.622 | 0.491 | 0.305 | 1.01 | 1.01 | 1.04 | 0.865 |
| NCI-H441 | 0.573 | 0.447 | 0.521 | 0.615 | 0.356 | 0.351 | 0.376 | 0.293 | 0.614 | 0.755 | 0.581 | 0.564 | 0.316 | 0.829 | 0.709 | 0.512 | 0.232 | 0.254 | 0.231 | 0.257 |
| ABC-1 | 0.963 | 0.836 | 0.864 | 0.788 | 0.331 | 0.26 | 0.33 | 0.34 | 0.181 | 0.216 | 0.218 | 0.217 | 0.263 | 0.209 | 0.184 | 0.179 | – | – | – | – |
| NCI-H1792 | 0.54 | 0.601 | 0.527 | 0.396 | 0.971 | 0.932 | 0.835 | 0.688 | – | – | – | – | 0.216 | 0.358 | 0.267 | 0.235 | 0.708 | 0.807 | 0.673 | 0.54 |
| NCI-H2170 | – | – | – | – | – | – | – | – | 0.674 | 0.772 | 0.69 | 0.697 | 0.394 | 0.416 | 0.319 | 0.28 | 0.262 | 0.253 | 0.252 | 0.259 |
| NCI-H1703 | 1.02 | 0.635 | 0.561 | 0.564 | 0.413 | 0.288 | 0.425 | 0.317 | – | – | – | – | – | – | – | – | – | – | – | – |
| NCI-H1650 | – | – | – | – | 0.198 | 0.195 | 0.184 | 0.2 | 0.369 | 0.425 | 0.513 | 0.343 | 0.365 | 0.405 | 0.33 | 0.201 | 0.408 | 0.371 | 0.355 | 0.306 |
| NCI-H1395 | 0.877 | 1.41 | 1.07 | 0.862 | – | – | – | – | 0.68 | 0.872 | 0.774 | 0.678 | 0.443 | 0.448 | 0.396 | 0.348 | 0.768 | 0.854 | 0.829 | 0.773 |
| NCI-H1793 | 0.785 | 0.917 | 0.867 | 0.778 | – | – | – | – | 0.305 | 0.297 | 0.353 | 0.213 | 0.39 | 0.256 | 0.278 | 0.211 | 0.655 | 0.932 | 0.66 | 0.584 |
| NCI-H2342 | – | – | – | – | – | – | – | – | 0.541 | 0.564 | 0.445 | 0.454 | 0.559 | 0.602 | 0.611 | 0.437 | 0.772 | 0.748 | 0.812 | 0.634 |
| NCI-H522 | – | – | – | – | – | – | – | – | 0.529 | 0.502 | 0.601 | 0.534 | 0.591 | 0.575 | 0.621 | 0.62 | 0.847 | 1.01 | 0.994 | 1.08 |
